In ChEMBL document CHEMBL5241132, “Design, synthesis and in vitro biological evaluation of 2-aminopyridine derivatives as novel PI3Kδ inhibitors for hematological cancer” (Bioorg Med Chem Lett, 2023):

Experiments:
[1] = molecular target: T1, Phosphatidylinositol 4,5-bisphosphate 3-kinase catalytic subunit delta isoform (Homo sapiens, UniProt O00329); assay: Inhibition of PI3Kdelta (unknown origin) by ADP Glo luminescent assay
T1 sequence (O00329 whole entry): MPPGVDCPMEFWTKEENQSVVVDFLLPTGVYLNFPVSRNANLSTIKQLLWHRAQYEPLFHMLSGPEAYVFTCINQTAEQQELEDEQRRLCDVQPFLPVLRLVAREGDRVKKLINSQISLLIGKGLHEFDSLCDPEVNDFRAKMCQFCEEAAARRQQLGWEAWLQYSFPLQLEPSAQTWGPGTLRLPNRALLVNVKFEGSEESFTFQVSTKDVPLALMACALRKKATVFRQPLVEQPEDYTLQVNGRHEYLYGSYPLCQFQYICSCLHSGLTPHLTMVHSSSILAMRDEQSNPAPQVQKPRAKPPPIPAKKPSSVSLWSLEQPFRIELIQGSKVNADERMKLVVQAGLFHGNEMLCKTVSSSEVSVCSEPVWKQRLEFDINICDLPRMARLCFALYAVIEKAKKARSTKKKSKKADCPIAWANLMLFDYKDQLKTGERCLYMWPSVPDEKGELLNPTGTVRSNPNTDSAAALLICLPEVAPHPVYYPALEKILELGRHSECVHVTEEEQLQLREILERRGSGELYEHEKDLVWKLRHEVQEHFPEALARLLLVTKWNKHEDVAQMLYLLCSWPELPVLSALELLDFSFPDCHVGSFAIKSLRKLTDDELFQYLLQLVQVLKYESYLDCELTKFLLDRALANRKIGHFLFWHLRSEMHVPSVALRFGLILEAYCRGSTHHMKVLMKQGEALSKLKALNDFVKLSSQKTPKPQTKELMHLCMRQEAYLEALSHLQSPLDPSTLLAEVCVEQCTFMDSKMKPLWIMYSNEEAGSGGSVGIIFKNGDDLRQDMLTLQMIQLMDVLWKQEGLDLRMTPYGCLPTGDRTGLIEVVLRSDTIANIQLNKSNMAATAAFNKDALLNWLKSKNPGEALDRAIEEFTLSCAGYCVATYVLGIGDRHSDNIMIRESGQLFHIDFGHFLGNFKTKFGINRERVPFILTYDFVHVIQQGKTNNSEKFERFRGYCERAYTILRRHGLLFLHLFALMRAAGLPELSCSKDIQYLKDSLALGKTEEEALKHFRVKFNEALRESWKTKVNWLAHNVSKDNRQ

[2] = molecular target: Phosphatidylinositol 4,5-bisphosphate 3-kinase catalytic subunit alpha isoform (Homo sapiens, UniProt P42336); assay: Inhibition of PI3Kalpha (unknown origin)
[3] = molecular target: Phosphatidylinositol 4,5-bisphosphate 3-kinase catalytic subunit beta isoform (Homo sapiens, UniProt P42338); assay: Inhibition of PI3Kbeta (unknown origin)
[4] = molecular target: Phosphatidylinositol 4,5-bisphosphate 3-kinase catalytic subunit gamma isoform (Homo sapiens, UniProt P48736); assay: Inhibition of PI3Kgamma (unknown origin)
[5] = Antiproliferative activity against human MOLM16 cells assessed as inhibition of cell growth; format: functional, cell-based, MOLM-16
MV4-11 [6] = assay: Antiproliferative activity against human MV4-11 cells assessed as inhibition of cell growth; format: functional, cell-based
KG-1 = assay: Antiproliferative activity against human KG-1 cells assessed as inhibition of cell growth; format: functional, cell-based
EOL1 = assay: Antiproliferative activity against human EOL1 cells assessed as inhibition of cell growth; format: functional, cell-based
HL-60 = assay: Antiproliferative activity against human HL-60 cells assessed as inhibition of cell growth; format: functional, cell-based
Homo sapiens [7] = species: Homo sapiens; assay: Selectivity index, ratio of IC50 for inhibition of PI3Kalpha (unknown origin) to IC50 for inhibition of PI3Kdelta (unknown origin) by ADP Glo luminescent assay
Homo sapiens [8] = species: Homo sapiens; assay: Selectivity index, ratio of IC50 for inhibition of PI3Kbeta (unknown origin) to IC50 for inhibition of PI3Kdelta (unknown origin) by ADP Glo luminescent assay
Homo sapiens [9] = species: Homo sapiens; assay: Selectivity index, ratio of IC50 for inhibition of PI3Kgamma (unknown origin) to IC50 for inhibition of PI3Kdelta (unknown origin) by ADP Glo luminescent assay
MV4-11 [10] = assay: Induction of apoptosis in human MV4-11 cells assessed as viable cells at 1 uM incubated for 48 hrs by Annexin V/PI staining based flow cytometric analysis (reference value: […]); format: functional; conditions: read-out: Activity
MV4-11 [11] = assay: Induction of apoptosis in human MV4-11 cells assessed as early apoptotic cells at 1 uM incubated for 48 hrs by Annexin V/PI staining based flow cytometric analysis (reference value: 1.57%); format: functional
MV4-11 [12] = assay: Induction of apoptosis in human MV4-11 cells assessed as late apoptotic cells at 1 uM incubated for 48 hrs by Annexin V/PI staining based flow cytometric analysis (reference value: 2.82%); format: functional
MV4-11 [13] = assay: Induction of apoptosis in human MV4-11 cells assessed as necrotic cells at 1 uM incubated for 48 hrs by Annexin V/PI staining based flow cytometric analysis (reference value: 0.060%); format: functional
MV4-11 [14] = assay: Induction of apoptosis in human MV4-11 cells assessed as viable cells at 3 uM incubated for 48 hrs by Annexin V/PI staining based flow cytometric analysis (reference value: […]); format: functional; conditions: read-out: Activity
MV4-11 [15] = assay: Induction of apoptosis in human MV4-11 cells assessed as early apoptotic cells at 3 uM incubated for 48 hrs by Annexin V/PI staining based flow cytometric analysis (reference value: 1.57%); format: functional
MV4-11 [16] = assay: Induction of apoptosis in human MV4-11 cells assessed as late apoptotic cells at 3 uM incubated for 48 hrs by Annexin V/PI staining based flow cytometric analysis (reference value: 2.82%); format: functional
MV4-11 [17] = assay: Induction of apoptosis in human MV4-11 cells assessed as necrotic cells at 3 uM incubated for 48 hrs by Annexin V/PI staining based flow cytometric analysis (reference value: 0.060%); format: functional
MV4-11 [18] = assay: Induction of apoptosis in human MV4-11 cells assessed as viable cells at 5 uM incubated for 48 hrs by Annexin V/PI staining based flow cytometric analysis (reference value: […]); format: functional; conditions: read-out: Activity
MV4-11 [19] = assay: Induction of apoptosis in human MV4-11 cells assessed as early apoptotic cells at 5 uM incubated for 48 hrs by Annexin V/PI staining based flow cytometric analysis (reference value: 1.57%); format: functional
MV4-11 [20] = assay: Induction of apoptosis in human MV4-11 cells assessed as late apoptotic cells at 5 uM incubated for 48 hrs by Annexin V/PI staining based flow cytometric analysis (reference value: 2.82%); format: functional
MV4-11 [21] = assay: Induction of apoptosis in human MV4-11 cells assessed as necrotic cells at 5 uM incubated for 48 hrs by Annexin V/PI staining based flow cytometric analysis (reference value: 0.060%); format: functional
MV4-11 [22] = assay: Induction of apoptosis in human MV4-11 cells assessed as viable cells at 10 uM incubated for 48 hrs by Annexin V/PI staining based flow cytometric analysis (reference value: […]); format: functional; conditions: read-out: Activity
MV4-11 [23] = assay: Induction of apoptosis in human MV4-11 cells assessed as early apoptotic cells at 10 uM incubated for 48 hrs by Annexin V/PI staining based flow cytometric analysis (reference value: 1.57%); format: functional
MV4-11 [24] = assay: Induction of apoptosis in human MV4-11 cells assessed as late apoptotic cells at 10 uM incubated for 48 hrs by Annexin V/PI staining based flow cytometric analysis (reference value: 2.82%); format: functional
MV4-11 [25] = assay: Induction of apoptosis in human MV4-11 cells assessed as necrotic cells at 10 uM incubated for 48 hrs by Annexin V/PI staining based flow cytometric analysis (reference value: 0.060%); format: functional
MV4-11 [26] = assay: Induction of apoptosis in human MV4-11 cells assessed as total apoptotic cells at 1 to 10 uM incubated for 48 hrs by Annexin V/PI staining based flow cytometric analysis (reference value: 4.39%); format: functional; conditions: dose 1-10 µM
MV4-11 [27] = assay: Cell cycle arrest in human MV4-11 cells assessed as accumulation of cells at G2/M phase incubated for 24 hrs by flow cytometric analysis; format: functional, cell-based; conditions: dose 1-10 µM
[28] = molecular target: Serine/threonine-protein kinase AKT (Homo sapiens) (UniProt P31751+Q9Y243+P31749); assay: Inhibition of AKT phosphorylation in human MV4-11 cells incubated for 4 hrs by Western blot analysis; format: cell-based; conditions: dose 1-10 µM
Chain of Serine/threonine-protein kinase AKT (Homo sapiens) (P31749 whole entry, looked up): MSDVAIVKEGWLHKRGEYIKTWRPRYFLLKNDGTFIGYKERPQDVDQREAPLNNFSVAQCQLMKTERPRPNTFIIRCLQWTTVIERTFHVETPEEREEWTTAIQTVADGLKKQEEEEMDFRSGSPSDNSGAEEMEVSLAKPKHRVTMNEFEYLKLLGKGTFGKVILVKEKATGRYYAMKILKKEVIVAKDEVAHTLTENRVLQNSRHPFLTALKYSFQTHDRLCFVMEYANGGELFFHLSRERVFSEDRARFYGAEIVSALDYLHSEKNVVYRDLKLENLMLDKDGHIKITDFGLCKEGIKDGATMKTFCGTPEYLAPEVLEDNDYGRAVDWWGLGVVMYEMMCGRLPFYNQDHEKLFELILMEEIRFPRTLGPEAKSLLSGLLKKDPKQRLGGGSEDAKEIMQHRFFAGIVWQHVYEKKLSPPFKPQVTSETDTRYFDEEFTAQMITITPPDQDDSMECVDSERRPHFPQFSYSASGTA
Chain of Serine/threonine-protein kinase AKT (Homo sapiens) (P31751 whole entry, looked up): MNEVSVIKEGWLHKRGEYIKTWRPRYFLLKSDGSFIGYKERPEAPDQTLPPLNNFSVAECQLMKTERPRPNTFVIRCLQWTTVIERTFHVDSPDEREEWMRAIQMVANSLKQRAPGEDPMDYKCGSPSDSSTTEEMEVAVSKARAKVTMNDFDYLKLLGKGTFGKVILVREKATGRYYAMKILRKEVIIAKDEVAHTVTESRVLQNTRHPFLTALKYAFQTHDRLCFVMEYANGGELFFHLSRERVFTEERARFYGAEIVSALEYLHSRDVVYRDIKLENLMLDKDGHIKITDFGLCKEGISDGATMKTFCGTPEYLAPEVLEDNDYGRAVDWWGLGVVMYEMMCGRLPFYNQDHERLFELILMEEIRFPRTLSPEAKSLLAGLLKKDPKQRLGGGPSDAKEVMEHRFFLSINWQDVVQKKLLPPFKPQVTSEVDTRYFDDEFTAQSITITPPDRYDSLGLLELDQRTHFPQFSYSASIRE
Chain of Serine/threonine-protein kinase AKT (Homo sapiens) (Q9Y243 whole entry, looked up): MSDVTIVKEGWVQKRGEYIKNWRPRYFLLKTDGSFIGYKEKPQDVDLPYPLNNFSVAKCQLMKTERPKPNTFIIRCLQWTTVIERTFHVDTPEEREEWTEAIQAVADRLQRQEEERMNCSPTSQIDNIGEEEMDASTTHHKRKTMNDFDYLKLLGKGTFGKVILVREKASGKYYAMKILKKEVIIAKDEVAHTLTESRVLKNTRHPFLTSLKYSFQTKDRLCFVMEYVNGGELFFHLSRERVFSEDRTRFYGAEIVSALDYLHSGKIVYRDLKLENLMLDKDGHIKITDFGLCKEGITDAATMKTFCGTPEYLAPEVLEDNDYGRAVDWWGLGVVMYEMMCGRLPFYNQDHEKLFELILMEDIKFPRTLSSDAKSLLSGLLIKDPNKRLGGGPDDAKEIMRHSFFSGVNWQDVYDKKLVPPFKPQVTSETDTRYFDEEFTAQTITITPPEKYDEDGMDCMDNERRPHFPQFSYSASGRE

Chain of Phosphatidylinositol 4,5-bisphosphate 3-kinase catalytic subunit gamma isoform (P48736 whole entry, canonical isoform): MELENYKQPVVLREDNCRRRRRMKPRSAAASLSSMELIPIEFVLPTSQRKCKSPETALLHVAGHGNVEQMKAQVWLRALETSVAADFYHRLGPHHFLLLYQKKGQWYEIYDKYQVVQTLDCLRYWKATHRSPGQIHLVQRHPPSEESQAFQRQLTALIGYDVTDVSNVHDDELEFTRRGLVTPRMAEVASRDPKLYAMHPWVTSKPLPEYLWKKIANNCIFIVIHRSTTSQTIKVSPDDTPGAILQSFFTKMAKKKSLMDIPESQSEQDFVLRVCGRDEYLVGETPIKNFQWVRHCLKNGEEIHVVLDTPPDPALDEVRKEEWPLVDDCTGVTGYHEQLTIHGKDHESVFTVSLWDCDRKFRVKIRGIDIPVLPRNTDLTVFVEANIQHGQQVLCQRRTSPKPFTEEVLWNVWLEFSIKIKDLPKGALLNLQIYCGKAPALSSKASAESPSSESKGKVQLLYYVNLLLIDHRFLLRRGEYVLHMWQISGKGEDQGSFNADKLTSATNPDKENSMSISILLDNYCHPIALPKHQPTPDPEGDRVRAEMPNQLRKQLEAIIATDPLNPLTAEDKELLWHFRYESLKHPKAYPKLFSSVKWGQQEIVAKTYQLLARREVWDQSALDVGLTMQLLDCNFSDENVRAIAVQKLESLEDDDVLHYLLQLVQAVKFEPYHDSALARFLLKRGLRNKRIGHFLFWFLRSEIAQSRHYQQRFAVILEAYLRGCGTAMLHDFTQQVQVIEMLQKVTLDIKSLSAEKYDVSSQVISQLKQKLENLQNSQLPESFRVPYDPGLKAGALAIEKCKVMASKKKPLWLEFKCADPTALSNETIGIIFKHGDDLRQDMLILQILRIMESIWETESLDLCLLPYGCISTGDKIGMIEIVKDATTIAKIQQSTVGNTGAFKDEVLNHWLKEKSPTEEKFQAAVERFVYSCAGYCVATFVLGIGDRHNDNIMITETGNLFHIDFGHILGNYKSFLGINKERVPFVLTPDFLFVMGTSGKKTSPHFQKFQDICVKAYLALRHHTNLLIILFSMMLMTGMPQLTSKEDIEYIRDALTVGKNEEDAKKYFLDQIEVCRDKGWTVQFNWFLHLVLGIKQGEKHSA
Chain of Phosphatidylinositol 4,5-bisphosphate 3-kinase catalytic subunit beta isoform (P42338 whole entry, canonical isoform): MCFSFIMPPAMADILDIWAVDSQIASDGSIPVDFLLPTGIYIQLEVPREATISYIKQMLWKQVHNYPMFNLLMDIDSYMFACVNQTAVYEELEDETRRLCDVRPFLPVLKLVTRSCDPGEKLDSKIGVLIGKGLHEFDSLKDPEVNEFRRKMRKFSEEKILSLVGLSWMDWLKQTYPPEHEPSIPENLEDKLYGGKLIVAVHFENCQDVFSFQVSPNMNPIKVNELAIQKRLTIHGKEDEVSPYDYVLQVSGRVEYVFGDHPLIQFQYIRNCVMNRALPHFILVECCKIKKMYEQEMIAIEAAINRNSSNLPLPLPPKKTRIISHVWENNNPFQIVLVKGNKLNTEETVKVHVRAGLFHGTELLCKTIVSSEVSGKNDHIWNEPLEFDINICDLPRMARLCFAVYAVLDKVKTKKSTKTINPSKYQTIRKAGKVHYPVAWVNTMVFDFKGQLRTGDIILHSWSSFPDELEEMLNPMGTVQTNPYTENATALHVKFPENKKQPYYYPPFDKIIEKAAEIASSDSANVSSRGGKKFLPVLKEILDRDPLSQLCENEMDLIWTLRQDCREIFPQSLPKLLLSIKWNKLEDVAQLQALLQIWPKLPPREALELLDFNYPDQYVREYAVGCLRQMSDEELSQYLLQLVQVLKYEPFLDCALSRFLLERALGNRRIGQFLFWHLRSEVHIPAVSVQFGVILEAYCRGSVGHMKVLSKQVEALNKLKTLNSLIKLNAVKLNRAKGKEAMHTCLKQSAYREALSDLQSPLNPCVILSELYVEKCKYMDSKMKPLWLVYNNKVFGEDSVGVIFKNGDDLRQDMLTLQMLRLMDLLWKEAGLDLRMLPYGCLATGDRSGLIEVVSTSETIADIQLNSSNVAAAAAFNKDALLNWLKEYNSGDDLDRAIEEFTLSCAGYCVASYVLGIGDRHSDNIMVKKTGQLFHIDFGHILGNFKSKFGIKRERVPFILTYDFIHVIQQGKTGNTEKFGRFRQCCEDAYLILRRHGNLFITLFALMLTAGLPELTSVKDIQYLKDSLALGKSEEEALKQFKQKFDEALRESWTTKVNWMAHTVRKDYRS
Chain of Phosphatidylinositol 4,5-bisphosphate 3-kinase catalytic subunit alpha isoform (P42336 whole entry, canonical isoform): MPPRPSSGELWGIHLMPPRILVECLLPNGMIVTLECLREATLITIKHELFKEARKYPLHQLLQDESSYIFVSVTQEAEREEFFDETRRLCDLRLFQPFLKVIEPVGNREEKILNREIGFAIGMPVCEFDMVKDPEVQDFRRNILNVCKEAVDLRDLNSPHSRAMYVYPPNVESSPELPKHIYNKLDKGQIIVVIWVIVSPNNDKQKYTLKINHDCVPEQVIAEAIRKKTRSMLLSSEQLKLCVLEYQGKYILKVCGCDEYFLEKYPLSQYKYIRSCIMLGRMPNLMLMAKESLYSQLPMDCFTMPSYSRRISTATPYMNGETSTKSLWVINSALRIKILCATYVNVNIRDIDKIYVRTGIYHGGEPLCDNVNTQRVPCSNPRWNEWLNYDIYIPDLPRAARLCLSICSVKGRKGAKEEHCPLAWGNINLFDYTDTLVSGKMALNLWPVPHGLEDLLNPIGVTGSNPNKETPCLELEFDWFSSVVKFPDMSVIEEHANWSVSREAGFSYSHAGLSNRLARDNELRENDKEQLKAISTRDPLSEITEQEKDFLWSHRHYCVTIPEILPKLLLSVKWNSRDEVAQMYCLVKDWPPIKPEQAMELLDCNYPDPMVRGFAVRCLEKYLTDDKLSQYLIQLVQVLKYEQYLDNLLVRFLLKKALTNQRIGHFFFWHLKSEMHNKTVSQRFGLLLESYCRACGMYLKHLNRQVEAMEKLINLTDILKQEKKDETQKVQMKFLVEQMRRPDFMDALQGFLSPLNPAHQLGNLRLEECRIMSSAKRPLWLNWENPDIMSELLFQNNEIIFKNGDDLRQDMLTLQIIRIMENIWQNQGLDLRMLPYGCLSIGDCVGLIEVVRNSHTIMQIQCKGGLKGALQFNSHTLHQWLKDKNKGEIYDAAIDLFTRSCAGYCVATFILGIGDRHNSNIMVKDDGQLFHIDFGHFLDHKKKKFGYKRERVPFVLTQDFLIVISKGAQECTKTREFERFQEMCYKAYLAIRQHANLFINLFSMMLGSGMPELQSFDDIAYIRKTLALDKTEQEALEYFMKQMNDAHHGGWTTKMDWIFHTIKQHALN

SMILES: Nc1cncc(-c2ccc(N)nc2)c1
- IC50 [1]: > 50 µM

SMILES: CCNC(=O)Nc1ccc(-c2cnc(Cl)c(NS(=O)(=O)c3ccccc3)c2)cn1
- IC50 [1]: 0.104 µM
- IC50 [2]: 0.412 µM
- IC50 [3]: 0.235 µM
- IC50 [4]: 0.18 µM

SMILES: CCOc1ncc(-c2ccc(N)nc2)cc1N
- IC50 [1]: > 50 µM

SMILES: COCCNC(=O)Nc1ccc(-c2cnc(Cl)c(NS(=O)(=O)c3ccccc3)c2)cn1
- IC50 [1]: 0.03 µM
- IC50 [2]: 0.288 µM
- IC50 [3]: 0.295 µM
- IC50 [4]: 0.243 µM
- IC50 [5]: 2.6 µM
- IC50 (MV4-11 [6]): 3.7 µM
- IC50 (KG-1): 18.9 µM
- IC50 (EOL1): 15.9 µM
- IC50 (HL-60): 8.7 µM
- Ratio IC50 (Homo sapiens [7]): 8
- Ratio IC50 (Homo sapiens [8]): 8
- Ratio IC50 (Homo sapiens [9]): 8
- viability at 1 µM (MV4-11 [10]): 96%
- Activity (MV4-11 [11]): 1.2%
- Activity (MV4-11 [12]): 2.65%
- Activity (MV4-11 [13]): 0.1%
- viability at 3 µM (MV4-11 [14]): 94%
- Activity (MV4-11 [15]): 1.47%
- Activity (MV4-11 [16]): 4.18%
- Activity (MV4-11 [17]): 0.335%
- viability at 5 µM (MV4-11 [18]): 85.5%
- Activity (MV4-11 [19]): 1.92%
- Activity (MV4-11 [20]): 10.9%
- Activity (MV4-11 [21]): 1.69%
- viability at 10 µM (MV4-11 [22]): 57.4%
- Activity (MV4-11 [23]): 3.21%
- Activity (MV4-11 [24]): 28.1%
- Activity (MV4-11 [25]): 11.3%
- Activity (MV4-11 [26]): 3.85%
- Activity (MV4-11 [27]): Dose-Dependent Effect
- inhibition [28]: Dose-Dependent Effect

SMILES: Nc1ccc(-c2ccc(Cl)nc2)cn1
- IC50 [1]: 47.5 µM

SMILES: N#Cc1ncc(-c2ccc(N)nc2)cc1N
- IC50 [1]: 33.5 µM

SMILES: CN(c1cc(-c2ccc(N)nc2)cnc1Cl)S(=O)(=O)c1ccccc1
- IC50 [1]: 11.3 µM

SMILES: CCC(=O)Nc1ccc(-c2cnc(Cl)c(NS(=O)(=O)c3ccccc3)c2)cn1
- IC50 [1]: 0.049 µM

SMILES: Nc1ccc(-c2cnc(F)c(N)c2)cn1
- IC50 [1]: > 50 µM

SMILES: COc1ncc(-c2ccc(N)nc2)cc1N
- IC50 [1]: > 50 µM

SMILES: Cc1ncc(-c2ccc(N)nc2)cc1N
- IC50 [1]: > 50 µM

SMILES: Nc1ccc(-c2cnc(Cl)c(NS(=O)(=O)c3ccccc3)c2)cn1
- IC50 [1]: 0.052 µM

SMILES: Nc1ccc(-c2cnc(Cl)c(NS(=O)(=O)c3ccc(F)cc3F)c2)cn1
- IC50 [1]: 0.067 µM

SMILES: CC(C)(C)c1ccc(S(=O)(=O)Nc2cc(-c3ccc(N)nc3)cnc2Cl)cc1
- IC50 [1]: 0.031 µM

SMILES: Oc1cccc(-c2nc(N3CCOCC3)c3oc4ncccc4c3n2)c1 [PI-103]
- IC50 [5]: 0.058 µM
- IC50 (MV4-11 [6]): 0.054 µM
- IC50 (KG-1): 0.088 µM
- IC50 (EOL1): 1.6 µM
- IC50 (HL-60): 0.089 µM

SMILES: Nc1ccc(-c2cnc(Cl)c(F)c2)cn1
- IC50 [1]: > 50 µM

SMILES: N#Cc1cc(-c2ccc(N)nc2)cnc1Cl
- IC50 [1]: > 50 µM

SMILES: CC(=O)Nc1ccc(-c2cnc(Cl)c(NS(=O)(=O)c3ccccc3)c2)cn1
- IC50 [1]: 0.048 µM

SMILES: Nc1ccc(-c2cnc(Cl)c(NS(=O)(=O)c3ccc(F)cc3)c2)cn1
- IC50 [1]: 0.098 µM

SMILES: CC[C@H](Nc1ncnc2[nH]cnc12)c1nc2cccc(F)c2c(=O)n1-c1ccccc1 [IDELALISIB]
- IC50 [5]: 13.3 µM
- IC50 (MV4-11 [6]): 4.3 µM
- IC50 (KG-1): 15.2 µM
- IC50 (EOL1): > 50 µM
- IC50 (HL-60): 0.48 µM

SMILES: Nc1ccc(-c2cnc(Cl)c(C(F)(F)F)c2)cn1
- IC50 [1]: 46.6 µM

SMILES: Cc1ccc(S(=O)(=O)Nc2cc(-c3ccc(N)nc3)cnc2Cl)cc1
- IC50 [1]: 0.041 µM

SMILES: CCCC(=O)Nc1ccc(-c2cnc(Cl)c(NS(=O)(=O)c3ccccc3)c2)cn1
- IC50 [1]: 0.046 µM

SMILES: Nc1ccc(-c2cnc(Cl)c(N)c2)cn1
- IC50 [1]: 32.5 µM

SMILES: Nc1ccc(-c2cnc(N)c(N)c2)cn1
- IC50 [1]: > 50 µM
